d = 2'-deoxy (DNA); r = 2'-OH (RNA)

Type in all cases: cell-based, human
Series [1] deals with TCTP. Briefly: TCTP protein level by Western blot in PC-3 cells treated with siRNA or ASO. How it is done:
Western Blot analysis was performed as described previously (Rocchi et al., 2004, Cancer Res. 64:6595-602) with 1:5000 rabbit anti-Hsp27 polyclonal antibody (Assay Designs, Villeurbanne, France), 1:2000 rabbit TCTP polyclonal antibody (Abcam Inc., Cambridge, UK), 1:250 rabbit anti-MSL1v1 polyclonal antibody (Abcam Inc.), 1:500 mouse anti-ubiquitin monoclonal antibody (Santa Cruz Biotechnology Inc., Heidelberg, Germany) or 1:1000 rabbit anti-caspase-3 polyclonal antibody (Cell Signalling Technology Inc., Danvers, USA). Loading levels were normalized using 1:5000 rabbit anti-glyceraldehyde-3-phosphate dehydrogenase polyclonal (Abcam Inc.) or 1:2500 mouse anti-vinculine monoclonal antibodies (Sigma Chemical Co., St Louis, Mo., USA). […]
To determine whether the inhibition of TCTP expression affects CR progression in vitro, ASO- or siRNA-induced inhibition of TCTP expression was determined by Western blot analysis. […] Total RNA was extracted and TCTP levels were analyzed by qRT-PCR. After the normalization of TCTP mRNA with 18S rRNA levels, results were analysed with the 2(-Delta Delta C(T)) Method (FIG. 5A). Each sample was analyzed in triplicate. ** differs from PC-3 transfected with control-siRNA (P≤0.01) and *** with ASO control (P≤0.001) using Statview software.
For orientation: Immunoblotting shows a protein as a band on a membrane.

The test system of series [2] is TCTP. Put plainly: ASO sequences screening: TCTP expression by western blot and/or qRT-PCR. The conditions noted are these: WB and/or qRT-PCR, PC-3 cells overexpressing TCTP. The method, then: Western Blot analysis was performed as described previously (Rocchi et al., 2004, Cancer Res. 64:6595-602) with 1:5000 rabbit anti-Hsp27 polyclonal antibody (Assay Designs, Villeurbanne, France), 1:2000 rabbit TCTP polyclonal antibody (Abcam Inc., Cambridge, UK), 1:250 rabbit anti-MSL1v1 polyclonal antibody (Abcam Inc.), 1:500 mouse anti-ubiquitin monoclonal antibody (Santa Cruz Biotechnology Inc., Heidelberg, Germany) or 1:1000 rabbit anti-caspase-3 polyclonal antibody (Cell Signalling Technology Inc., Danvers, USA). Loading levels were normalized using 1:5000 rabbit anti-glyceraldehyde-3-phosphate dehydrogenase polyclonal (Abcam Inc.) or 1:2500 mouse anti-vinculine monoclonal antibodies (Sigma Chemical Co., St Louis, Mo., USA).
The quantitative reverse transcription polymerase chain reaction (qRT-PCR) analysis was done on a LightCycler detection system (Roche Applied Science, Meylan, France). Expression levels of 18S subunit of the ribosome gene were used as an internal control. First strand cDNA was synthesized from 1 μg of total RNA using random hexamers and expanded by reverse transcriptase according to the manufacturer's instructions (ImProm-II Reverse Transcription System, Promega, Charbonniéres-les-Bains, France), subsequently diluted 1:10 with water, and stored at −20° C. until use. TCTP and 18S polymerase chain reaction (PCR) products were detected by quantitative real time PCR (qRT-PCR) using the SYBR Premix Ex Taq (Takara Bio Inc, St Germain en Laye, France) following the manufacturer's instructions. Five microliters of diluted cDNA template were mixed with 10 μl SYBR Premix Ex Taq (including Taq polymerase, reaction buffer, MgCl2, SYBR green I dye, and deoxynucleotide triphosphate mix) and 0.4 μM forward and reverse primers, in a final volume of 20 μl. The following primers were used: TCTP forward 5′-[…]-3′ (SEQ ID NO: 8) and TCTP reverse 5′-[…]-3′; (SEQ ID NO: 9); 18S forward 5′-[…]-3′ (SEQ ID NO: 10) and 18S reverse 5′-[…]-3′ (SEQ ID NO: 11). After an initial Taq activation for 10 seconds at 95° C., Light Cycler PCR was done using 55 cycles with the following cycling conditions: 95° C. for 5 seconds, 58° C. for 7 seconds, and 72° C. for 14 seconds. Each sample was analyzed in duplicate and the experiment was repeated three times. Results were analyzed using RealQuant data analysis software (Roche, Neuilly-sur-seine, France). The results analysis was done with the 2(-Delta Delta C(T)) Method (Livak K J. et al., 2001; Methods. 25:402-8).
In order to find a sequence ASO having an inhibiting effect on TCTP expression, 30 ASO sequences have been designed 26 of which are shown in table 1. Said 30 sequences cover the TCTP mRNA (accession number NM_003295). Using BLAST program, the specificity of said sequences has been studied. Among said 30 sequences, only 15 sequences have been identified as being specific for TCPT mRNA sequence (see table 1). The effect of said ASO sequences on TCTP expression was tested by western blot analysis (WB) and/or by quantitative reverse transcription polymerase chain reaction (qRT-PCR) on PC-3 cells overexpressing TCTP. WB and qRT-PCR were performed as exposed in example 1.

A further series has as its system C4-2 cells. Briefly: Crystal violet cell growth assay, C4-2 cells. The method, then: In brief, cells were seeded in each well of 12-well microtiter plates (30 000 to 50 000 cells per well) and allowed to attach overnight. To study the effect of TCTP downregulation on apoptosis induced by docetaxel, PC-3 cells were transiently transfected the day after seeding with 5 nM of TCTP siRNA for 48 h or 100 nM of TCTP ASO for 72 h. Cells were then treated with 50 nM of docetaxel and MTT assays were performed after 24 h. To assess the effect of TCTP downregulation on Hsp27 cytoprotection, LNCaP-Mock and -Hsp27 cells were transiently transfected the day after seeding with 5 nM of TCTP siRNA for 48 h. The down- or upregulation of TCTP effect on LNCaP and C4-2 cell viability was realized after transient transfections with 100 nM of TCTP ASO or 0.02 μg/μl of pDEST-TCTP for 72 h and 48 h respectively. Cells were then treated with 1 nM of docetaxel in serum-free media (mimics androgen withdrawal in vitro) and crystal violet assays were performed the day after. Each assay was performed in triplicate.
Finally, in order to assess if TCTP ASO has the same effect on prostatic cancer cell lines expressing the androgen receptor (AR), crystal violet dye was used to examin LNCaP and C4-2 cell growth. LNCaP and C4-2 were treated with 100 nM TCTP or control ASO (FIGS. 15 A and B) for 2 days. Then, LNCaP and C4-2 cells were incubated with 1 nM of docetaxel in serum-free media.

On to “5′-AACCCGUCCGCGAUCUCCCdGdG-3′ (AACCCGUCCGCGAUCUCCCGG; siRNA; sugars from the 5' end r19 d2, backbone not given here) [TCTP siRNA, from Qiagen]”, for which, in the series on TCTP [1] (siRNA at 5 nM), the “inhibition of TCTP protein” value is “significant inhibition”.
Turning to “5′-ACCAATGAGCGAGTCATCAA-3′ (phosphorothioate backbone, further chemistry not given here) [ASO10]”, the “inhibition of TCTP protein” value with TCTP [1] (ASO at 100 nM) is recorded as “significant inhibition”. Moreover, in the series with TCTP [2], the “ability to inhibit TCTP expression” value is recorded as “strong ability to inhibit TCTP expression” and the “best ability to inhibit specifically TCTP expression” value is given as “best ability to inhibit specifically TCTP expression”. For the same substance, in the series with C4-2 cells (100 nM ASO for 2 days), the C4-2 cell growth entry is recorded as “considerably decrease”. Also, the “sensitivity to docetaxel and androgen withdrawal” value in the series on C4-2 cells (C4-2, 100 nM ASO 2 days then 1 nM docetaxel in serum-free media) was “enhance treatments (docetaxel and androgen withdrawal) sensitivity”.

(Values after patent US10105384B2, “Nucleic acids targeting TCTP for use in the treatment of chemo- or hormone-resistant cancers” (INSTITUT NATIONAL DE LA SANTE ET DE LA RECHERCHE MEDICALE …, priority 2010, dated 2018).)
